Patent publication US6946458B2, “N-thiolated beta-lactams: novel antibacterial agents for methicillin-resistant Staphylococcus aureus” (University of South Florida, priority 1999, dated 2005)

Columns and labels:
Assay in all cases: Kirby-Bauer agar disk diffusion
Conditions in all cases: Table 3, 6-mm disks, 20 μg test compound, 24 hours
[1] = test system: MRSA USF657; type: cell-based, Staphylococcus aureus
Method: (§1) In this study, a selection of N-methylthio-substituted β-lactams are examined for antimicrobial activity by the Kirby-Bauer disk diffusion method on agar plates. A variety of common Gram-positive and Gram-negative bacteria are tested, including clinical isolates of methicillin-resistant Staphylococcus aureus (MRSA).
(§2) Compound susceptibility measurements are obtained from agar disk diffusion experiments using 6-mm air-dried disks impregnated with 20 μg of the test compound. The values correspond to the average diameters in mm (triplicate experiments) for the zone of growth inhibition observed after 24 h. Staphylococcus aureus (ATCC 25923) and β-lactamase-producing strains of methicillin-resistant Staphylococcus aureus (labeled as MRSA USF652-659) are obtained from Lakeland Regional Medical Center, Lakeland, Fla. Staphylococcus epidermidis, Staphylococcus simulans, Staphylococcus simulans, and Microcossus luteus are clinical isolates from University of South Florida Medical Clinic. Nieserria gonnorhoeae (β-lactamase positive) is obtained from the Tampa Branch State Laboratory. PenG is penicillin G (potassium salt). Table 1 provides the zones of growth inhibition that are observed after 24 hours using the lactams of FIGS. 1A-1I (designated A-I, respectively).
(§3) Of particular interest is the ability of these compounds to retain their effectiveness against penicillin-resistant strains of Staphylococcus aureus, a dangerous hospital-borne pathogen which is becoming difficult to treat with conventional antibiotic therapy. The lactams were screened for antibacterial activity by disk diffusion on agar plates, and the resulting zones of bacterial growth inhibition measured (see Table 3; each lactam is designated by Figure number).
(§4) Table 3: Growth inhibition zones obtained from agar disk diffusion experiments using 6-mm air-dried disks impregnated with 20 μg of the test compound. The values correspond to the average diameters in mm for the zone of growth inhibition observed after 24 hours. Staphylococcus aureus and β-lactamase-producing strains of methicillin-resistant Staphylococcus aureus (labeled MRSA USF652-659) are obtained from a clinical testing laboratory at Lakeland Regional Medical Center, Lakeland, Fla.
(§5) Those compounds were tested for bioactivity using the Kirby-Bauer test on agar plates.
(§6) Biological activity is enhanced against β-lactamase producing strains of methicillin-resistant Staphylococcus aureus (MRSA). With the lactam shown in FIG. 11A serving as a lead structure, a series of other C-4 substituted derivatives (FIGS. 11B-11I) were investigated herein. Table 5 lists microbiological data for β-lactams from Kirby-Bauer Disc Diffusion Test Results (with each lactam identified by Figure number).
(§7) Scheme I summarizes the synthesis of ester compounds 4. 4-Carboxy benzaldehyde (1) is coupled with the appropriate alcohol using DCC/DMAP, followed by reaction with p-anisidine, to give imines 2. Staudinger coupling of methoxyacetyl chloride with imine 2 gives N-aryl protected β-lactam 3. N-Dearylation of β-lactam 3 with ceric ammonium nitrate and methylthiolation with N-(methylthio)phthalimide affords N-methylthio β-lactams 4. These compounds are tested for antibacterial activity by the Kirby-Bauer method of disc diffusion on agar plates. [drawing 7]

[2] = test system: MRSA USF659; type: cell-based, Staphylococcus aureus
Method: as §1, §2, §3, §4, §5, §6, §7

[3] = test system: MRSA USF652; type: cell-based, Staphylococcus aureus
Method: as §1, §2, §3, §4, §5, §6, §7

[4] = test system: MRSA USF653; type: cell-based, Staphylococcus aureus
Method: as §1, §2, §3, §4, §5, §6, §7

[5] = test system: MRSA USF658; type: cell-based, Staphylococcus aureus
Method: as §1, §2, §3, §4, §5, §6, §7

[6] = test system: MRSA USF656; type: cell-based, Staphylococcus aureus
Method: as §1, §2, §3, §4, §5, §6, §7

[7] = test system: MRSA USF655; type: cell-based, Staphylococcus aureus
Method: as §1, §2, §3, §4, §5, §6, §7

[8] = test system: MRSA USF654; type: cell-based, Staphylococcus aureus
Method: as §1, §2, §3, §4, §5, §6, §7

[9] = test system: Staphylococcus epidermidis; type: cell-based
Method: as §1, §2, §3, §4

[10] = test system: Micrococcus luteus; type: cell-based
Method: as §1, §2, §3, §4

[11] = test system: Staphylococcus aureus (ATCC 25923); type: cell-based
Method: as §1, §2, §3, §4

[12] = test system: S. saprophyticus (ATCC 3552); type: cell-based, Staphylococcus saprophyticus
Method: as §1, §2, §3, §4

[13] = test system: S. simulans (ATCC 11631); type: cell-based, Staphylococcus simulans
Method: as §1, §2, §3, §4

| Structure (SMILES) | zone of growth inhibition, average diameter [1] | zone of growth inhibition, average diameter [2] | zone of growth inhibition, average diameter [3] | zone of growth inhibition, average diameter [4] | zone of growth inhibition, average diameter [5] | zone of growth inhibition, average diameter [6] | zone of growth inhibition, average diameter [7] | zone of growth inhibition, average diameter [8] | zone of growth inhibition, average diameter [9] | zone of growth inhibition, average diameter [10] | zone of growth inhibition, average diameter [11] | zone of growth inhibition, average diameter [12] | zone of growth inhibition, average diameter [13] | other results |
| --- | --- | --- | --- | --- | --- | --- | --- | --- | --- | --- | --- | --- | --- | --- |
| COC1C(=O)N(SC)C1C#Cc1ccccc1 (racemic) [FIG. 2B] | 28 mm | 24 mm | 29 mm | 29 mm | 27 mm | 30 mm | 27 mm | 27 mm | 30 mm | 28 mm | 27 mm | 23 mm | 19 mm | – |
| COC1C(=O)N(SC)C1CCc1ccccc1 (racemic) [FIG. 3E] | 14 mm | 15 mm | 18 mm | 20 mm | 15 mm | 17 mm | 15 mm | 17 mm | 12 mm | 20 mm | 16 mm | 9 mm | 9 mm | – |
| CSN1C(=O)C(Oc2ccccc2)C1C=Cc1ccccc1 (racemic) [FIG. 3D] | 13 mm | 12 mm | 14 mm | 16 mm | 12 mm | 13 mm | 15 mm | 14 mm | 10 mm | 10 mm | 15 mm | 11 mm | 8 mm | – |
| COC1C(=O)N(SC)C1C=Cc1ccccc1 (racemic) [FIG. 3B] | – | – | – | – | – | – | – | – | – | – | – | – | – | zone of growth inhibition, average diameter ([1]; listed as 3B): 22 mm; zone of growth inhibition, average diameter ([2]; listed as 3B): 17 mm; zone of growth inhibition, average diameter ([3]; listed as 3B): 25 mm; zone of growth inhibition, average diameter ([4]; listed as 3B): 26 mm; zone of growth inhibition, average diameter ([5]; listed as 3B): 21 mm; zone of growth inhibition, average diameter ([6]; listed as 3B): 24 mm; zone of growth inhibition, average diameter ([7]; listed as 3B): 21 mm; zone of growth inhibition, average diameter ([8]; listed as 3B): 22 mm; zone of growth inhibition, average diameter ([9]; listed as 3B): 26 mm; zone of growth inhibition, average diameter ([10]; listed as 3B): 23 mm; zone of growth inhibition, average diameter ([11]; listed as 3B): 21 mm; zone of growth inhibition, average diameter ([12]; listed as 3B): 16 mm; zone of growth inhibition, average diameter ([13]; listed as 3B): 12 mm |
| CSN1C(=O)C(OC(C)=O)C1C=Cc1ccccc1 (racemic) [FIG. 3C] | 16 mm | 15 mm | 18 mm | 18 mm | 16 mm | 17 mm | 18 mm | 16 mm | 19 mm | 17 mm | 15 mm | 12 mm | 10 mm | – |
| CSN1C(=O)C(Oc2ccccc2)C1CCc1ccccc1 (racemic) [FIG. 3G] | 12 mm | 12 mm | 14 mm | 12 mm | 12 mm | 13 mm | 11 mm | 13 mm | 12 mm | 17 mm | 14 mm | 10 mm | 8 mm | – |
